Experimental data from US4129648A, “Method for reducing endogenous prostaglandin synthesis” (priority 1977, dated 1978).
Counter-ions that a name gives are not always drawn.

What was measured:
[1] = system: bronchoconstriction induced by sodium arachidonate; experiment: Dynamic compliance and airway resistance in the anaesthetized guinea pig challenged with sodium arachidonate; format: in vivo
Protocol: (§1) The ability of Cohn subfraction IV4 and haptoglobin to reduce the transient hypertension caused by administration of sodium arachidonate in the guinea pig was also measured. These tests were carried out as follows.
(§2) Male albino guinea pigs weighing 400-600 g each (Dunkin Hartley strain) were anesthetized by administration of sodium pentobarbitone, 60 mg/kg intraperitoneally. The trachea was cannulated for artificial ventilation by a Starling pump (5-8 ml at 72 strokes per minute) via a Fleisch 0000 pneumatachograph. The difference in pressure across this device was measured with a Grass differential pressure transducer. […] Transpulmonary pressure (TPP) was measured with another differential pressure transducer via side arms to the thoracic cavity and the tracheal cannula. The signals for low and TPP were applied to the analogue computer so that there was approximately 180° phase difference. The computer derived the dynamic compliance and resistance from the in-going signals. Drugs were administered intravenously via the external jugular vein. A 1 mg/ml solution of sodium arachidonate was prepared as follows. […] These doses were given at 30 minute intervals to produce a large but submaximal bronchoconstriction. After 2 or 3 similar responses to the same dose of sodium arachidonate had been obtained, the test substance in saline (0.1 to 1 ml) was injected intravenously. At various times thereafter, a challenge was given.

[2] = system: transient hypertension induced by sodium arachidonate; experiment: Mean arterial blood pressure in the anaesthetized guinea pig challenged with sodium arachidonate; format: in vivo
Protocol: as §1, §2
The left carotid artery was cannulated for recording blood pressure with a Grass pressure transducer (Consolidated Dynamics 0.75 cm Hg type 4L221) linked to a Devices twin channel polygraph via a CD2D pre-amplifier. Electrocardiograms were recorded using a DC6 pre-amplifier linked to the Devices polygraph.

[3] = dose 0.03 mg/kg intravenously, challenge 45 sec after treatment
[4] = dose 0.10 mg/kg intravenously, challenge 45 sec after treatment
[5] = dose 25μ/kg intravenously, challenge 30 min after treatment
[6] = dose 25μ/kg intravenously, challenge 60 min after treatment
[7] = dose 25μ/kg intravenously, challenge 90 min after treatment
[8] = dose 25μ/kg intravenously, challenge 120 min after treatment
[9] = dose 25μ/kg intravenously, challenge 150 min after treatment
[10] = dose 50μ/kg intravenously, challenge 30 min after treatment
[11] = dose 50μ/kg intravenously, challenge 60 min after treatment
[12] = dose 50μ/kg intravenously, challenge 90 min after treatment
[13] = dose 50μ/kg intravenously, challenge 120 min after treatment
[14] = dose 50μ/kg intravenously, challenge 150 min after treatment
[15] = dose 50μ/kg intravenously, challenge 180 min after treatment
[16] = dose 50μ/kg intravenously, challenge 210 min after treatment
[17] = dose 50μ/kg intravenously, challenge 240 min after treatment
[18] = dose 5 mg/kg intravenously, challenge 45 sec after treatment
[19] = dose 20 mg/kg intravenously, challenge 45 sec after treatment
[20] = dose 50 mg/kg intravenously, challenge 45 sec after treatment
[21] = dose 100 mg/kg intravenously, challenge 45 sec after treatment

Compound: COc1ccc2c(c1)c(CC(=O)O)c(C)n2C(=O)c1ccc(Cl)cc1 [Indomethacin, indomethacin sodium salt]
- Mean % Inhibition (± s.e.) of educed dynamic lung compliance [1, 3]: 58.7 ± 15.7%
- Mean % Inhibition (± s.e.) of increased airway resistance [1, 3]: 47.0 ± 15.8%
- Mean % Inhibition (± s.e.) of educed dynamic lung compliance [1, 4]: 85.5 ± 14.5%
- Mean % Inhibition (± s.e.) of increased airway resistance [1, 4]: 90.5 ± 9.5%
- Mean % Inhibition (± s.e.) of hypertension [2, 3]: 65.0 ± 2.1%

Compound: ACTH: a drenocorticotrophin (ACTH), well known anti-inflammatory agent (SYSMEHFRWGKPVGKKRRPVKVYPNGAEDESAEAFPLEF; Corticotropin; UniProt P01189 138-176, looked up)
- Mean % Inhibition (± s.e.) of educed dynamic lung compliance [1, 5]: 16.5 ± 16.5%
- Mean % Inhibition (± s.e.) of increased airway resistance [1, 5]: 31.5 ± 24.5%
- Mean % Inhibition (± s.e.) of educed dynamic lung compliance [1, 6]: 35.5 ± 2.5%
- Mean % Inhibition (± s.e.) of increased airway resistance [1, 6]: 55.5 ± 3.5%
- Mean % Inhibition (± s.e.) of educed dynamic lung compliance [1, 7]: 62.5 ± 12.5%
- Mean % Inhibition (± s.e.) of increased airway resistance [1, 7]: 72.5 ± 12.5%
- Mean % Inhibition (± s.e.) of educed dynamic lung compliance [1, 8]: 53.0 ± 3.0%
- Mean % Inhibition (± s.e.) of increased airway resistance [1, 8]: 68.5 ± 16.5%
- Mean % Inhibition (± s.e.) of educed dynamic lung compliance [1, 9]: 63.0%
- Mean % Inhibition (± s.e.) of increased airway resistance [1, 9]: 85.0%
- Mean % Inhibition (± s.e.) of increased airway resistance [1, 10]: 52.0%
- Mean % Inhibition (± s.e.) of increased airway resistance [1, 11]: 73.0%
- Mean % Inhibition (± s.e.) of increased airway resistance [1, 12]: 73.0%
- Mean % Inhibition (± s.e.) of increased airway resistance [1, 13]: 91.0%
- Mean % Inhibition (± s.e.) of increased airway resistance [1, 14]: 68.0%
- Mean % Inhibition (± s.e.) of increased airway resistance [1, 15]: 59.0%
- Mean % Inhibition (± s.e.) of increased airway resistance [1, 16]: 66.0%
- Mean % Inhibition (± s.e.) of increased airway resistance [1, 17]: 67.0%
- Mean % Inhibition (± s.e.) of educed dynamic lung compliance ([1]; intravenously, challenge 30 min after treatment): 67.0%
- Mean % Inhibition (± s.e.) of educed dynamic lung compliance ([1]; intravenously, challenge 60 min after treatment): 50.0%
- Mean % Inhibition (± s.e.) of educed dynamic lung compliance ([1]; intravenously, challenge 90 min after treatment): 67.0%
- Mean % Inhibition (± s.e.) of educed dynamic lung compliance ([1]; intravenously, challenge 120 min after treatment): 75.0%
- Mean % Inhibition (± s.e.) of educed dynamic lung compliance ([1]; intravenously, challenge 150 min after treatment): 58.0%
- Mean % Inhibition (± s.e.) of educed dynamic lung compliance ([1]; intravenously, challenge 180 min after treatment): 75.0%
- Mean % Inhibition (± s.e.) of educed dynamic lung compliance ([1]; intravenously, challenge 210 min after treatment): 75.0%
- Mean % Inhibition (± s.e.) of educed dynamic lung compliance ([1]; intravenously, challenge 240 min after treatment): 75.0%
- Mean % Inhibition (± s.e.) of hypertension [2, 5]: 24.0 ± 10.0%
- Mean % Inhibition (± s.e.) of hypertension [2, 6]: 28.5 ± 14.5%
- Mean % Inhibition (± s.e.) of hypertension [2, 7]: 49.0 ± 15.0%
- Mean % Inhibition (± s.e.) of hypertension [2, 8]: 53.5 ± 3.5%
- Mean % Inhibition (± s.e.) of hypertension [2, 9]: 17.0%
- Mean % Inhibition (± s.e.) of hypertension [2, 10]: 83.0%
- Mean % Inhibition (± s.e.) of hypertension [2, 11]: 67.0%
- Mean % Inhibition (± s.e.) of hypertension [2, 12]: 100.0%
- Mean % Inhibition (± s.e.) of hypertension [2, 13]: 67.0%
- Mean % Inhibition (± s.e.) of hypertension [2, 14]: 100.0%
- Mean % Inhibition (± s.e.) of hypertension [2, 15]: 83.0%
- Mean % Inhibition (± s.e.) of hypertension [2, 16]: 100.0%
- Mean % Inhibition (± s.e.) of hypertension [2, 17]: 100.0%

Compound: Haptoglobin heated to 60° C 15 min: haptoglobin from Cohn subfraction IV4 by ammonium sulphate purification, partially heat-inactivated
- Mean % Inhibition (± s.e.) of educed dynamic lung compliance [1, 18]: 6.3 ± 6.3%
- Mean % Inhibition (± s.e.) of increased airway resistance [1, 18]: 10.3 ± 5.2%
- Mean % Inhibition (± s.e.) of hypertension [2, 18]: 7.0 ± 7.0%

Compound: Haptoglobin: obtained from human plasma Cohn subfraction IV4 by ammonium sulphate purification and DEAE cellulose chromatography
- Mean % Inhibition (± s.e.) of educed dynamic lung compliance [1, 18]: 27.4 ± 5.3%
- Mean % Inhibition (± s.e.) of increased airway resistance [1, 18]: 31.8 ± 4.7%
- Mean % Inhibition (± s.e.) of educed dynamic lung compliance [1, 19]: 34.3 ± 7.4%
- Mean % Inhibition (± s.e.) of increased airway resistance [1, 19]: 44.3 ± 6.7%
- Mean % Inhibition (± s.e.) of educed dynamic lung compliance [1, 20]: 49.0 ± 3.2%
- Mean % Inhibition (± s.e.) of increased airway resistance [1, 20]: 67.7 ± 0.3%
- Mean % Inhibition (± s.e.) of educed dynamic lung compliance [1, 21]: 64.0 ± 0%
- Mean % Inhibition (± s.e.) of increased airway resistance [1, 21]: 67.0 ± 8.0%
- Mean % Inhibition (± s.e.) of hypertension [2, 18]: 34.5 ± 13.9%
- Mean % Inhibition (± s.e.) of hypertension [2, 19]: 83.5 ± 16.5%
- Mean % Inhibition (± s.e.) of hypertension [2, 20]: 90.0 ± 10.0%
- Mean % Inhibition (± s.e.) of hypertension [2, 21]: 73.0%
